Source: patent US20200165291A1, “NEUROACTIVE STEROIDS, COMPOSITIONS, AND USES THEREOF” (Sage Therapeutics, Inc., priority 2014, published 2020)
pIC50: −log10 of the molar value. Where two headings read alike, the source gives them in different places.

Key:
[1] = target: [35S]-TBPS binding, rat brain cortical membranes (GABA receptor complex); assay: [35S]-TBPS binding (steroid inhibition of TBPS binding); conditions: in the presence of 5 μM GABA, read-out: 35S-TBPS Radioligand Displacement
Experimental: [35S]-t-Butylbicyclophosphorothionate (TBPS) binding assays using rat brain cortical membranes in the presence of 5 μM GABA has been described (Gee et al, J. Pharmacol. Exp. Ther. 1987, 241, 346-353; Hawkinson et al, Mol. Pharmacol. 1994, 46, 977-985; Lewin, A. H et al., Mol. Pharmacol. 1989, 35, 189-194).
Briefly, cortices are rapidly removed following decapitation of carbon dioxide-anesthetized Sprague-Dawley rats (200-250 g). The cortices are homogenized in 10 volumes of ice-cold 0.32 M sucrose using a glass/teflon homogenizer and centrifuged at 1500×g for 10 min at 4° C. The resultant supernatants are centrifuged at 10,000×g for 20 min at 4° C. to obtain the P2 pellets. The P2 pellets are resuspended in 200 mM NaCl/50 mM Na-K phosphate pH 7.4 buffer and centrifuged at 10,000×g for 10 min at 4° C. This washing procedure is repeated twice and the pellets are resuspended in 10 volumes of buffer. Aliquots (100 μL) of the membrane suspensions are incubated with 3 nM [^35S]-TBPS and 5 μL aliquots of test drug dissolved in dimethyl sulfoxide (DMSO) (final 0.5%) in the presence of 5 μM GABA. The incubation is brought to a final volume of 1.0 mL with buffer. Nonspecific binding is determined in the presence of 2 μM unlabeled TBPS and ranged from 15 to 25%. Following a 90 min incubation at room temp, the assays are terminated by filtration through glass fiber filters (Schleicher and Schuell No. 32) using a cell harvester (Brandel) and rinsed three times with ice-cold buffer. Filter bound radioactivity is measured by liquid scintillation spectrometry. Non-linear curve fitting of the overall data for each drug averaged for each concentration is done using Prism (GraphPad). […] The concentration of test compound producing 50% inhibition (IC50) of specific binding and the maximal extent of inhibition (Imax) are determined for the individual experiments with the same model used for the overall data and then the means±SEM.s of the individual experiments are calculated.
Various compounds are or can be screened to determine their potential as modulators of [^35S]-TBPS binding in vitro. These assays are or can be performed in accordance with the above discussed procedures.

[2] = target: T1, recombinant α1β2γ2 GABAA receptors (Homo sapiens, UniProt P14867+P47870); assay: Patch clamp electrophysiology, QPatch, LTK cells; type: cell-based; conditions: 10 μM test article, GABA EC20 = 2 μM, read-out: GABA (α1β2γ2) Qpatch in Ltk, % efficacy at 10 μM
T1 construct: expressed in transfected cells
T1 sequence (P14867 28-456): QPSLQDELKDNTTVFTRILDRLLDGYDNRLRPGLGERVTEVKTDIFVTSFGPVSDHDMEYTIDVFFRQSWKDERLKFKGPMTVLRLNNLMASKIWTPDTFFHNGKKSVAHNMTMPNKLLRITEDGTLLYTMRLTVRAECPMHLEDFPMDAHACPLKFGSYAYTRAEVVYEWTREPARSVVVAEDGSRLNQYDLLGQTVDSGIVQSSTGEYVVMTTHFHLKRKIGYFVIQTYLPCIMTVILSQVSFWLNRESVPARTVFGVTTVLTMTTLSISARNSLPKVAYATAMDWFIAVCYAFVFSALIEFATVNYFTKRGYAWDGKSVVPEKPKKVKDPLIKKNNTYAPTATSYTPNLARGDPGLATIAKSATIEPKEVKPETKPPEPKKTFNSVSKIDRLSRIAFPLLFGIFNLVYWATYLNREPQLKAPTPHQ
T1 sequence (P47870 25-512 limits assumed): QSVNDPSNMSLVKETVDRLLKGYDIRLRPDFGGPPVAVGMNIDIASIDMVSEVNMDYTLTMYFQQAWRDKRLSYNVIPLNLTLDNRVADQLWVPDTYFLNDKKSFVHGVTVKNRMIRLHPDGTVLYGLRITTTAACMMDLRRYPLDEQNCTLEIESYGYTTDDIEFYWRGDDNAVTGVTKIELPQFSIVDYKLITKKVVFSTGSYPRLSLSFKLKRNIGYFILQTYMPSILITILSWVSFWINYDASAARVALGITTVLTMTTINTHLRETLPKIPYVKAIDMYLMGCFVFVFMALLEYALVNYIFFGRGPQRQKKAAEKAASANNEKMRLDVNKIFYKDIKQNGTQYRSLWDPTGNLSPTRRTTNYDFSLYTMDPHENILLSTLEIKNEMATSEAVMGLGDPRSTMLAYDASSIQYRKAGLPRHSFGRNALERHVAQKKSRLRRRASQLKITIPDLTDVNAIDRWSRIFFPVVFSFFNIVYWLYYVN
T1 sequence (P18507 40-475 partner): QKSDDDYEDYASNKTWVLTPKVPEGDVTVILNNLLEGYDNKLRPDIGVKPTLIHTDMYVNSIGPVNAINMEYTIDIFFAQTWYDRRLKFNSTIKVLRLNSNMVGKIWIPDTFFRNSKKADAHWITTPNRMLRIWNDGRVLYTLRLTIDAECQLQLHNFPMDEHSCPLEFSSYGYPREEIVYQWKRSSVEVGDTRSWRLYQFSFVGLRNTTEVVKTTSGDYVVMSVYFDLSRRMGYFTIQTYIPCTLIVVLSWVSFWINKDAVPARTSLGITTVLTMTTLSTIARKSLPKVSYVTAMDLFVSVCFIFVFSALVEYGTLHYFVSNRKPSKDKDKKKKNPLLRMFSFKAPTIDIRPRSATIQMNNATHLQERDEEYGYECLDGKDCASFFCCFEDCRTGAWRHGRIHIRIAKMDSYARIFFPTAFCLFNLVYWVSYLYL

[3] = target: T2, recombinant α4β3δ GABAA receptors (Homo sapiens, UniProt P28472+P48169); assay: Patch clamp electrophysiology, manual patch, CHO cells; type: cell-based; conditions: 10 μM test article, GABA EC20 = 2 μM, read-out: GABA (α4β3δ) Manual patch in CHO, % efficacy at 10 μM
T2 construct: expressed in transfected cells; host or cells: CHO cells (transient transfection, Lipofectamine)
T2 sequence (P48169 36-554): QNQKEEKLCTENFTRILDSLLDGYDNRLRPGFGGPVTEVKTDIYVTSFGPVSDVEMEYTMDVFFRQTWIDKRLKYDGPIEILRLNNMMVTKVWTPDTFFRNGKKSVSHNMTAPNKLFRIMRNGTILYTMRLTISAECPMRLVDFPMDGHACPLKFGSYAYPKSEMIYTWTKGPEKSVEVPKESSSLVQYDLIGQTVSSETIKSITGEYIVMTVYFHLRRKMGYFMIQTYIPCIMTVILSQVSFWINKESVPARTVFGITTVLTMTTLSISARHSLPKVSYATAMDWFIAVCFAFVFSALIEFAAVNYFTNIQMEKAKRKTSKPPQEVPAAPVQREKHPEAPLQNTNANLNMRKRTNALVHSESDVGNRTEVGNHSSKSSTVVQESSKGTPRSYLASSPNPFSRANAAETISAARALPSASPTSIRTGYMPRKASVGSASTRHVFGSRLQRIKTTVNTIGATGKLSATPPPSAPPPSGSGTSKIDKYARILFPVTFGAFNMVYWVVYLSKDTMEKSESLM
T2 sequence (P28472 26-473): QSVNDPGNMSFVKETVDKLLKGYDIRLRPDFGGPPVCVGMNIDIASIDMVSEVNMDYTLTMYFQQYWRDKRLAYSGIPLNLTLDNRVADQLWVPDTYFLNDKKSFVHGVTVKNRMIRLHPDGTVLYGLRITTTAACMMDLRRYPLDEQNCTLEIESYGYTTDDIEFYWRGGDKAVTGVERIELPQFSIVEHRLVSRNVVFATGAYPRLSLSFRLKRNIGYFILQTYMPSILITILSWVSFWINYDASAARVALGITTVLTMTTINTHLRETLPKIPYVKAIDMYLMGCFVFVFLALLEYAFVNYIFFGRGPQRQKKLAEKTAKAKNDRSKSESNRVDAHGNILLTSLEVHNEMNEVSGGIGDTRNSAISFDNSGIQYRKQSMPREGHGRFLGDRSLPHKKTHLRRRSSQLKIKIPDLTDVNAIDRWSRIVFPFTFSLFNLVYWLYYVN
T2 sequence (O14764 17-452 partner limits assumed): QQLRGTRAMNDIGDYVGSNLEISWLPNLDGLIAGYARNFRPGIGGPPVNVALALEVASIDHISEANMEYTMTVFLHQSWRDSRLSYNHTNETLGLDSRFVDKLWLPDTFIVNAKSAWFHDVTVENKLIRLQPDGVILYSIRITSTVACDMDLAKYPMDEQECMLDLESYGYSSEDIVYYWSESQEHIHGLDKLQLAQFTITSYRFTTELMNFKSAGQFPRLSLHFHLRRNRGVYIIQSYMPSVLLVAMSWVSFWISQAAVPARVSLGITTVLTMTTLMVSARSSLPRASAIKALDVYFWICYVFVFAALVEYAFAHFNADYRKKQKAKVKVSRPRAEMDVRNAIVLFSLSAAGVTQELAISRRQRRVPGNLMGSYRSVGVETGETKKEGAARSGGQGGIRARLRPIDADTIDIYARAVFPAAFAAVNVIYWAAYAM

[4] = system: PTZ-treated male CD-1 mice; assay: Acute PTZ (pentylenetetrazol-induced seizure) method in mice; type: in vivo; conditions: Mus musculus, latency to tonic seizures, read-out: Anticonvulsive Effect Dose (minimal effective anticonvulsant dose)
Experimental: The anticonvulsant effect of test compounds were assessed in the pentylenetetazol-induced seizure assay in mice similar to methods described in Giardina & Gasior (2009) Curr Protoc Pharmacol., Chapter 5. Male CD-1 mice were housed in groups of five under controlled conditions (temperature of 22±2° C. and 12:12 light-dark cycle, lights on at 8:00 am) and water and food were available ad libitum. The mice were housed for 1 week prior to behavioral testing, at which time they weighed 25-35 g. Pentylenetetrazol (PTZ, Sigma) was dissolved in sterile 0.9% saline at a concentration of 12 mg/mL concentration for subcutaneous administration. Test compounds were formulated and administered via oral gavage or intraperitoneal injection at a predetermined time-point (typically 30 or 60 minutes) prior to PTZ injection. All solutions were made fresh and were given in a volume of 10 ml/kg body weight.
Mice were acclimated to the test room for at least 30 min before compound administration. Mice were randomized into at least four test groups (vehicle and at least three doses of the test compound) with 10 mice per group. […] Following the drug pretreatment time the mice were injected s.c. with PTZ (120 mg/kg). Immediately following the PTZ injection, mice were individually placed into observation chambers (25×15×15 cm) and a three-channel timer was started. Each mouse was continuously observed for 30 min and the following behaviors were recorded by observers blinded to the treatments: 1) latency to clonic convulsions that persist for 3 sec and followed by an absence of righting reflex 2) latency to tonic convulsions, characterized by the rigid extension of all four limbs that exceeded a 90 degree angle with the body 3) latency to death 4) number of clonic and tonic convulsions. Data are presented as mean±S.E.M and one-way analysis of variance with Dunnett's or Bonferroni's post-hoc test was used to detect significant differences in latency and number between the vehicle and dose group. p values<0.05 were regarded as statistically significant.

C[C@@]1(O)CC[C@H]2[C@H](CC[C@@H]3[C@@H]2CC[C@]2(C)[C@@H](C(=O)Cn4cnnn4)CC[C@@H]32)C1 [SA-2]
pIC50 [1]: 7.00 to 7.30
Emax at 10 µM [2]: > 500%
Emax at 10 µM [3]: 100 to 500%
minimal effective dose ([4]; PO (oral administration)): 1 to 3 mg/kg

Cc1cnnn1CC(=O)[C@H]1CC[C@H]2[C@@H]3CC[C@@H]4C[C@](C)(O)CC[C@@H]4[C@H]3CC[C@]12C [SA-4]
Emax at 10 µM [2]: > 500%
Emax at 10 µM [3]: > 500%

Cc1nnnn1CC(=O)[C@H]1CC[C@H]2[C@@H]3CC[C@@H]4C[C@](C)(O)CC[C@@H]4[C@H]3CC[C@]12C [SA-6]
pIC50 [1]: 7.30 to 9.00
Emax at 10 µM [2]: 100 to 500%
Emax at 10 µM [3]: > 500%
minimal effective dose ([4]; PO (oral administration)): 1 to 3 mg/kg

C[C@@]1(O)CC[C@H]2[C@H](CC[C@@H]3[C@@H]2CC[C@]2(C)[C@@H](C(=O)Cn4ccnn4)CC[C@@H]32)C1 [SA-9]
pIC50 [1]: 7.30 to 9.00
Emax at 10 µM [2]: 100 to 500%
Emax at 10 µM [3]: > 500%
minimal effective dose ([4]; IP (intraperitoneal injection)): 1 to 3 mg/kg

C[C@@]1(O)CC[C@H]2[C@H](CC[C@@H]3[C@@H]2CC[C@]2(C)[C@@H](C(=O)Cn4ncc(C(N)=O)n4)CC[C@@H]32)C1 [SA-13]
Emax at 10 µM ([2]; in cremophor): 100 to 500%
Emax at 10 µM ([3]; in cremophor): > 500%

C[C@@]1(O)CC[C@H]2[C@@H](CC[C@@H]3[C@@H]2CC[C@]2(C)[C@@H](C(=O)Cn4cncn4)CC[C@@H]32)C1 [SB-1]
pIC50 [1]: 6.30 to 7.00
Emax at 10 µM [3]: > 500%

C[C@@]1(O)CC[C@H]2[C@@H](CC[C@@H]3[C@@H]2CC[C@]2(C)[C@@H](C(=O)Cn4cnnn4)CC[C@@H]32)C1 [SB-2]
pIC50 [1]: 6.30 to 7.00
Emax at 10 µM [2]: 100 to 500%
Emax at 10 µM [3]: 100 to 500%
minimal effective dose ([4]; IP (intraperitoneal injection)): > 3 mg/kg

Cc1nnnn1CC(=O)[C@H]1CC[C@H]2[C@@H]3CC[C@H]4C[C@](C)(O)CC[C@@H]4[C@H]3CC[C@]12C [SB-4]
Emax at 10 µM [2]: 100 to 500%
Emax at 10 µM [3]: > 500%

C[C@@]1(O)CC[C@H]2[C@@H](CC[C@@H]3[C@@H]2CC[C@]2(C)[C@@H](C(=O)Cn4ccnn4)CC[C@@H]32)C1 [SB-6]
pIC50 [1]: 7.00 to 7.30
Emax at 10 µM [2]: 100 to 500%
Emax at 10 µM [3]: 100 to 500%
minimal effective dose ([4]; IP (intraperitoneal injection)): 1 to 3 mg/kg

Cc1nnnn1CC(=O)[C@H]1CC[C@H]2[C@@H]3CC[C@@H]4C[C@@](O)(CF)CC[C@@H]4[C@H]3CC[C@]12C [SF-2]
Emax at 10 µM [2]: 100 to 500%
Emax at 10 µM [3]: > 500%

C[C@]12CC[C@H]3[C@@H](CC[C@@H]4C[C@@](O)(C(F)F)CC[C@@H]43)[C@@H]1CC[C@@H]2C(=O)Cn1cnnn1 [SG-1]
Emax at 10 µM [2]: 100 to 500%
Emax at 10 µM [3]: 100 to 500%

C[C@]12CC[C@H]3[C@@H](CC[C@@H]4C[C@@](O)(C(F)F)CC[C@@H]43)[C@@H]1CC[C@@H]2C(=O)Cn1ccnn1 [SG-5]
pIC50 [1]: 6.30 to 7.00
Emax at 10 µM [2]: > 500%
Emax at 10 µM [3]: > 500%

COC[C@@]1(O)CC[C@H]2[C@@H](CC[C@@H]3[C@@H]2CC[C@]2(C)[C@@H](C(=O)Cn4cnnn4)CC[C@@H]32)C1 [SI-1]
pIC50 [1]: 6.30 to 7.00
Emax at 10 µM [2]: 100 to 500%
Emax at 10 µM [3]: > 500%
minimal effective dose ([4]; PO (oral administration)): 1 to 3 mg/kg

COC[C@@]1(O)CC[C@H]2[C@@H](CC[C@@H]3[C@@H]2CC[C@]2(C)[C@@H](C(=O)Cn4ccnn4)CC[C@@H]32)C1 [SI-2]
pIC50 [1]: 6.30 to 7.00
Emax at 10 µM [2]: 100 to 500%
Emax at 10 µM [3]: > 500%
minimal effective dose ([4]; PO (oral administration)): 1 to 3 mg/kg
